Measurements published in patent US20020168685A1, “Covalent chemical inducers of protein dimerization and their uses in high throughput binding screens” (priority 2001, published 2002).

How the values were obtained:
[1] = tested on: S. cerevisiae strain FY250
Source text: The plasmids encoding the LexA- and B42-fusion proteins were introduced in all necessary combinations into S. cerevisiae strain FY250 containing a plasmid encoding the lacZ reporter plasmid.
All of these experiments have been done as plate assays. The toxicity of the ligand and receptor is judged simply by seeing if either induction of the receptor fusions or application of the ligand to the plate impairs cell growth.

GR fusion proteins = settings: cited from earlier work

SMILES: C[C@@H]1C[C@H]2[C@@H]3CCC4=CC(=O)C=C[C@]4(C)[C@@]3(F)[C@@H](O)C[C@]2(C)[C@@]1(O)C(=O)CO [DEX, Dexamethasone]
- toxicity (impaired cell growth) [1]: neither DEX nor GR are toxic
- cell permeability (GR fusion proteins): cell permeable
- modification or breakdown in the cell (GR fusion proteins): not modified or broken down in the cell
